Measured values published in patent publication US6916472B2, “PON3 and uses thereof” (Regents of the University of Michigan, priority 2000, dated 2005).

What was measured:
rabbit serum PON3 = target: T1, rabbit serum PON3 (Oryctolagus cuniculus, UniProt Q9BGN0); test: Hydrolytic activity of purified rabbit serum PON3 with paraoxon, aromatic esters and lactones; assay type: biochemical; conditions: for PON3 hydrolytic activity with substrate (in words) / PON3 (rate of hydrolysis of substrate): purified rabbit serum PON3; for PON3 (rate of hydrolysis of substrate): 25° C.; for PON1/PON3 Ratio: ratio of hydrolysis rates of PON1 and PON3
T1 construct: from tissue; host or cells: rabbit serum
T1 sequence (Q9BGN0 2-354 limits assumed): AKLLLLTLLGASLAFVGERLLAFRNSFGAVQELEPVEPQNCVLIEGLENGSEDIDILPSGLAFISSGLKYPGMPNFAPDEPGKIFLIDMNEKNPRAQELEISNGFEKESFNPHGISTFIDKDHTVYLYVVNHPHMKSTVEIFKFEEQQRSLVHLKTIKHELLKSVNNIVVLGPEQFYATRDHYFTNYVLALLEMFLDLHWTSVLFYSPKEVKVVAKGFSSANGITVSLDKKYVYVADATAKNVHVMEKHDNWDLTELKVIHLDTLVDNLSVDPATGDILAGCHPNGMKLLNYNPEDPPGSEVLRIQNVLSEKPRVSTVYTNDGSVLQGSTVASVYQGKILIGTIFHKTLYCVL
Protocol: (§1) Esterase activities with substrates: phenyl acetate, S-phenyl thioacetate, α-naphtyl acetate and paraoxon were measured as described by Kuo and La Du (Kuo and La Du, Drug Metab. Dispos., 23:335 [1995]; Qan et al., Drug Metab Dispos, 19:100-106 [1991]. For example, arylesterase activity is measured using a molar difference extinction coefficient (difference in extinction coefficients of phenol vs. phenol acetate) of 1,310 M^−1 cm^−1, at 270 nm with 1.0 mM phenyl acetate in 50 mM Tris/HCl (pH 8.0):1.0 mM CaCl2 buffer (Gan et al., supra). For the hydrolysis of thiophenyl acetate, the substrate is dissolved in methanol, and the reaction cuvettes contain 1.0 mM substrate in 50 mM Tris/HCl (pH 8.0):1.0 mM CaCl2 buffer. The product, thiophenol, reacts with 5,5′-dithiobis(2-nitrobenzoic acid), and activity is calculated from a molar difference extinction coefficient of 13,600 M^−1 cm^−1 at 412 nm (Augustinsson and Axenfors, Anal. Biochem., 48:428 [1972]). For the hydrolysis of α-naphtyl acetate, substrates are dissolved in ethylene glycol monomethyl ether, and the reaction cuvettes contain 0.5 mM substrate in 50 mM Tris/HCl (pH 8.0):1.0 mM CaCl2 buffer. Enzymatic activities are calculated from the molar extinction coefficients of 23,170 M^−1 cm^−1 at 235 nm. PON activity is measured with 1.0 mM paraoxon in 50 mM glycine:NaOH buffer (pH 10.5):1.0 mM CaCl2 with or without 1.0 M NaCl. Enzymatic activities were calculated from a molar extinction coefficient of 18,290 M^−1 cm^−1 at 412 nm (Gan et al., supra). All enzymatic assays are performed at 25° C. For each assay, 5 μl of purified PON (1.5-2.5 μg of enzyme protein) is added to an assay cuvette. For all substrates, one unit of enzymatic activity is defined as 1 μmol of substrate hydrolyzed/min.
(§2) Hydrolysis of aromatic lactones was monitored by the increase in UV absorbance at 270 nm (dihydrocoumarin), 274 nm (2-coumaranone), and 290 nm (homogentisic acid lactone). Lactones were purchased from Sigma. In a typical experiment a cuvette contained 1 mM substrate (from a […] stock solution, dissolved in methanol) in 50 mM Tris/HCl (pH 8.0), 1 mM CaCl2 and 5-20 μl enzyme source in a total volume of 1 ml. The molar difference extinction coefficients (difference in extinction coefficients of substrate and product) used to calculate the rate of hydrolysis were 1295, 876, and 816 M^−1 cm^−1 for dihydrocoumarin, 2-coumaranone and homogentisic acid lactone, respectively.
(§3) The hydrolysis of other lactones was followed by a calorimetric assay with phenol red (Billecke, et al., Chem Biol Interact, 119-120:251-256, [1999]). The reaction cuvette contained 1 mM substrate (from a 100 mM stock solution, dissolved in methanol) in 2 mM HEPES at starting pH 8.0, 1 mM CaCl2, 0.004% (106 μM) phenol red, 0.005% bovine albumin, and 5-20 μl enzyme solution in a total volume of 1 ml. The rate of acid production was followed by monitoring the increase in absorbance at 422 nm as the color changed from red to yellow. The rate of hydrolysis was derived from a calibration curve obtained using known amounts of HCl.
(§4) All the above assays (Sections, A, B, and C) were performed at 25° C. using a dual beam Cary 3E […] Spectrophotometer (Varian). Reference cuvettes containing the appropriate buffer plus substrate were used in each assay to correct for any spontaneous hydrolysis.

rabbit serum PON1 = target: T2, rabbit serum PON1 (Oryctolagus cuniculus, UniProt P27170); test: Hydrolytic activity of purified rabbit serum PON1 with paraoxon, aromatic esters and lactones; assay type: biochemical; conditions: 25° C.
T2 construct: PON 1 was purified further by pooling the fractions with highest arylesterase activity from a second DEAE column; from tissue; host or cells: rabbit serum
T2 sequence (P27170 whole entry Y185T): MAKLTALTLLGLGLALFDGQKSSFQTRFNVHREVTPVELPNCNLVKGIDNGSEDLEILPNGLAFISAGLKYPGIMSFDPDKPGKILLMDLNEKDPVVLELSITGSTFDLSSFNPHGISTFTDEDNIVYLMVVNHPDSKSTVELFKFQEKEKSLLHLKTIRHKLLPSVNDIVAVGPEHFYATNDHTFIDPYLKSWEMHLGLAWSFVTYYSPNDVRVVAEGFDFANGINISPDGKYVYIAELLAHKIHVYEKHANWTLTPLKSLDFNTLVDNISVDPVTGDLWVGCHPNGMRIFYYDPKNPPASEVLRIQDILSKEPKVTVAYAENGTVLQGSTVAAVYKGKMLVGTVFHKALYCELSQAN
Protocol: as §1, §2, §3, §4

PON3 = target: T3, PON3 (Oryctolagus cuniculus, UniProt Q9BGN0); test: Hydrolysis of statin lactones by PON3; assay type: biochemical, rabbit
T3 construct: from tissue; host or cells: rabbit serum
T3 sequence (Q9BGN0 2-354 limits assumed): as the sequence (Q9BGN0 2-354 limits assumed) above
Protocol: The hydrolysis of the statin lactones (mevastatin, lovastatin and simvastatin) was analyzed by high performance liquid chromatography (HPLC) using a Beckman System Gold HPLC with a Model 126 Programmable Solvent Module, a Model 168 Diode Array Detector set at 238 nm, a Model 7125 Rheodyne manual injector valve with a 20 μl loop, and a Beckman ODS Ultrasphere column (C 18, 250×4.6 mm, 5 μm). Lovastatin (Mevacor) and simvastatin were purchased as 20 mg tablets from Merck, from which the lactones were extracted with chloroform, evaporated to dryness and redissolved in methanol. Mevastatin was purchased from Sigma.
In a final volume of 1 ml, 10-200 μl of enzyme solution and 10 μl of substrate solution in methanol (0.5 mg/ml) were incubated at 25° C. in 50 mM Tris/HCl (pH 7.6), 1 mM CaCl2. […]
Samples were eluted isocratically at a flow rate of 1.0 ml/min with a mobile phase consisting of the following: A=acetic acid/acetonitrile/water (2:249:249, v/v/v) and B=acetonitrile, in A/B ratios of 50/50, 45/55 and 40/60 for mevastatin, lovastatin and simvastatin, respectively. […] Response factors for the acid products were calculated from the peak heights after complete alkaline hydrolysis of the lactones in 0.02 M NAOH for 2-24 hours at 25° C.

| Compound | PON3 hydrolytic activity with substrate (in words) (rabbit serum PON3) | PON3 (rate of hydrolysis of substrate) (rabbit serum PON3) | PON1/PON3 Ratio (rabbit serum PON3) | PON1 (rate of hydrolysis of substrate) (rabbit serum PON1) [µmol/min/mg] | hydrolysis of lactone drug by PON3 (in words) (PON3) |
| --- | --- | --- | --- | --- | --- |
| CC(=O)Oc1ccccc1 [Phenyl Acetate] | very poor substrates | 1.0 µmol/min/mg | 769 | 768.7 |  |
| O=C1CCC(c2ccccc2)O1 (stereo not drawn) [γ-phenyl-γ-butyrolactone] |  | 20.4 µmol/min/mg | 10 | 203 |  |
| CC(=O)Oc1ccc2ccccc2c1 [β-Naphtyl Acetate] |  | 4.6 µmol/min/mg | 30 | 138.8 |  |
| O=C1Cc2ccccc2O1 [2-Coumaronone] |  | 32.4 µmol/min/mg | 4.0 | 136.6 |  |
| CC1CCC(=O)O1 (stereo not drawn) [γ-Valerolactone] |  | 3.0 µmol/min/mg | 26 | 78.4 |  |
| CCCCC1CCC(=O)O1 (stereo not drawn) [γ-Octalactone] |  | 29 µmol/min/mg | 3.6 | 104.5 |  |
| CCCCC1CCCC(=O)O1 (stereo not drawn) [δ-Nonalactone] |  | 44 µmol/min/mg | 3.4 | 142 |  |
| CCCCCCCC1CCCC(=O)O1 (stereo not drawn) [δ-Dodecalactone] |  | 98.2 µmol/min/mg | 1.8 | 179.4 |  |
| O=C1Oc2ccccc2C1Br (stereo not drawn) [α-Br-2-Coumaronone] |  | 2.8 µmol/min/mg | 97 | 270.1 |  |
| CCOP(=O)(OCC)Oc1ccc([N+](=O)[O-])cc1 [Paraoxon] | very poor substrates | <0.0075^1 μmol/min/mg | 638 | 4.76 |  |
| CCCCCCCC1CCC(=O)O1 (stereo not drawn) [γ-Undecalactone] |  | 44.2 µmol/min/mg | 2 | 87.4 |  |
| C=C1CCC(=O)O1 [γ-methylene-γ-butyrolactone] |  | 12 µmol/min/mg | 52 | 622 |  |
| CCCCCCC1CCC(=O)O1 (stereo not drawn) [γ-Decalactone] |  | 50.2 µmol/min/mg | 1.8 | 92 |  |
| CCCCCC1CCC(=O)O1 (stereo not drawn) [γ-Nonalactone] |  | 60 µmol/min/mg | 1.3 | 79.6 |  |
| CCCC1CCC(=O)O1 (stereo not drawn) [γ-Heptalactone] |  | 8.6 µmol/min/mg | 12 | 107 |  |
| CCCCC1OC(=O)CC1C (stereo not drawn) [β-methyl-γ-octalactone] |  | 3 µmol/min/mg | 12 | 34.8 |  |
| CC1CCCC(=O)O1 (stereo not drawn) [δ-Hexalactone] |  | 3.6 µmol/min/mg | 58 | 207 |  |
| CC1=CCC(=O)O1 [α-Angelica lactone] |  | 3.4 µmol/min/mg | 52 | 175.1 |  |
| δ-Undecalactone |  | 90 µmol/min/mg | 2.1 | 186.8 |  |
| CC[C@H](C)C(=O)O[C@H]1C[C@@H](C)C=C2C=C[C@H](C)[C@H](CC[C@@H]3C[C@@H](O)CC(=O)O3)[C@H]21 [lovastatin] |  |  |  |  | can also hydrolyse |
| CCCCCC1CCCC(=O)O1 (stereo not drawn) [δ-Decalactone] |  | 73 µmol/min/mg | 1.8 | 134.8 |  |
